Results on 1 molecule are retold here after PMC7901654, “Bioisosteric Discovery of NPA101.3, a Second-Generation RET/VEGFR2 Inhibitor Optimized for Single-Agent Polypharmacology” (Journal of Medicinal Chemistry, 2020).

Data set [1] deals with NIH3T3 HRAS/G12V cells. The data set is described as follows: Cell growth curves, transformed NIH3T3. It counts as cell-based. The note with it: up to 100.0 nM. The method, then:
Nthy-ory-3-1 (10000 per well), TPC-1 (10000 per well), MZ-CRC-1 (100000 per well), TT (200000 per well), Lc-2/ad (100000 per well), BCPAP (10000 per well), 8505-C (10000 per well), PC-9 (10000 per well), A549 (10000 per well), CALU-1 (10000 per well), NIH3T3 RET/C634Y (10000 per well), and NIH3T3 HRAS/G12V (10000 per well) were seeded in six-well tissue culture plates. Cells were kept in 2% (TPC-1), 5% (Nthy-ori-3-1), or 10% (BCPAP, 8505-C, CALU-1, A549, PC-9, TT, MZ-CRC-1, and Lc-2/ad) fetal calf serum or in 2% (NIH3T3 RET/C634Y and HRAS/G12V) calf serum. Ba/F3 cells (200000 per well in 2 mL) were seeded in six-well tissue culture plates and kept in 10% fetal calf serum. The day after plating, different concentrations of the drug or vehicle were added to the medium and changed every 2–3 days. Cells were counted every day (Ba/F3), every 2 days (fibroblasts), or every 2–3 days (human cell lines). […] IC50 doses were calculated through a curve fitting analysis from last day of growth curves using the PRISM software program (Graphpad Software Inc.).
Supplementary Figure S9: NPA101.3-mediated inhibition of proliferation of RET-transformed NIH3T3 cells […] Serum-starved NIH3T3 cells exogenously expressing the RET/C634Y or HRAS/G12V oncogenes were incubated with vehicle (NT: not treated) or the indicated concentrations of the compound and counted at the indicated time points. […]

A short description of data set [2]: Toxicity, plasma biochemical analysis. The note with it: 10 mg/kg/day oral, 7 days, mice. It counts as in vivo, mouse. Here is the method:
In vivo target (RET and VEGFR2) inhibition was studied by treating animals grafted with NIH3T3 RET/C634Y cells at different doses (0.3, 1, or 3 mg/kg/day p.o.) of NPA101.3 for 2 days and then performing Western blot analysis on protein extracts. […] Then, to determine antitumorigenic activity and to better distinguish RET- and VEGFR2-mediated effects, we tested NPA101.3 in nude mice transplanted with NIH3T3 cells transformed by either RET/C634Y or HRAS/G12V. Before tumors appeared, animals were treated daily with NPA101.3 (1.0, 3.0, or 10.0 mg/kg/day) or left untreated. […] Still, VEGFR2 inhibition was detected also in RAS-driven tumors, an effect that might explain the, albeit reduced, effect of the drug on their growth (Figure S13). Importantly, as predicted, no trace of NPA101.3 demethyl metabolites was detected after 1 or 4 h from oral dosing in mice (Figure S14).
Patch-Clamp assay. The patch-clamp assay has been outsourced to Aptuit (Verona, Italy). […]
After thawing, cells were maintained in culture using minimum essential medium supplemented with 10% foetal bovine serum, 1% non-essential amino acids, 1% sodium pyruvate, 2mM L-glutamine, 1% pen-strep, 15μg/ml blasticidin and 100 μg/ml hygromycin. hERG channel expression induction was obtained by adding 10 μg/ml tetracycline 48 h before the experiment. […] Current amplitude was measured and […]

`CC(C)(C)c1cc(NC(=O)Cc2ccc(-n3cnc4cc(-c5ccc(S(C)(=O)=O)cc5)ccc43)cc2)no1` [NPA101.3]: the “effect on proliferation of NIH3T3 HRAS/G12V cells” value in data set [1] was “virtually no effect”. Also, the “standard blood markers of organ damage” value in data set [2] is recorded as “no significant change”.
